Test results reported in patent US11702404B2, “GLP-1R modulating compounds” (priority 2019, dated 2023).
Where two headings read alike, the source gives them in different places.

Key:
GLP-1R = GLP-1R (Homo sapiens, UniProt P43220); test: GLP-1R activation: cAMP increase in CHO cells stably expressing GLP-1R; format: cell-based
[1] = Microsomal stability, human liver microsomes (predicted hepatic clearance); conditions: predicted from in vitro microsomal stability data
[2] = cAMP increase, CHO cells stably expressing GLP-1R, 10 point dose response, 30 minutes incubation, read-out: EC50

GLP-1R, sequence (P43220 24-463): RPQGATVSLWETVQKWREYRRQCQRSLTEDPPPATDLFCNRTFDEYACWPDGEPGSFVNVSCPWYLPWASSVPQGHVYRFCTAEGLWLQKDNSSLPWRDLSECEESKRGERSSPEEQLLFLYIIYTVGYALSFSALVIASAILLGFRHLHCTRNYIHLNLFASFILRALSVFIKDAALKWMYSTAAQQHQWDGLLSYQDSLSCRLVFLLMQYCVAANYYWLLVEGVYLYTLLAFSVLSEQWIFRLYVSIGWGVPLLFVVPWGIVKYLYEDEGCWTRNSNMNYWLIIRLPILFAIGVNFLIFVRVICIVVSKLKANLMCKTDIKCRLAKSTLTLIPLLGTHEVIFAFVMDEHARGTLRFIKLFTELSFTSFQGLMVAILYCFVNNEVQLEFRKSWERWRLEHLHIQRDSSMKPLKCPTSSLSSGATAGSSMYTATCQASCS

Compound | EC50 (GLP-1R; [2]) | Predicted Hepatic Clearance (Pred. Cl.) [1] | EC50 (GLP-1R; EC50 (nM))
COCCn1c(Cc2cc(F)c(-c3cccc(OCc4ccc(C#N)c(F)c4)n3)cc2F)nc2ccc(C(=O)O)cc21 [Example 603, 2-(4-(6-((4-cyano-3-fluorobenzyl)oxy)pyridin-2-yl)-2,5-difluorobenzyl)-1-(2-methoxyethyl)-1H-benzo[d]imidazole-6-carboxylic acid] | – | 0.17 L/h/kg | 4.13 nM
Cn1ccnc1Cn1c(Cc2ccc(-c3cccc(OCc4ccc(C#N)cc4F)n3)cc2F)nc2ccc(C(=O)O)cc21 [Example 607] | 108 nM | 0.18 L/h/kg | –
O=C(O)c1ccc2nc(Cc3cc(F)c(-c4cccc(OCc5ccc(C(F)F)cc5F)n4)cc3F)n(Cc3ncco3)c2c1 [Example 608] | 0.74 nM | 0.11 L/h/kg | –
O=C(O)c1ccc2nc(Cc3cc(F)c(-c4cccc(OCc5ccc(C(F)F)cc5F)n4)cc3F)n(Cc3ccon3)c2c1 [Example 609] | 0.15 nM | 0.11 L/h/kg | –
N#Cc1ccc(COc2cccc(-c3cc(F)c(Cc4nc5ccc(C(=O)O)cc5n4C4COCC4(F)F)cc3F)n2)c(F)c1 (centres unmarked) [Example 612] | 0.22 nM | 0.23 L/h/kg | –
N#Cc1ccc(COc2cccc(-c3cc(F)c(Cc4nc5ccc(C(=O)O)cc5n4[C@H]4COC[C@H]4O)cc3F)n2)c(F)c1 [Example 613] | 0.54 nM | 0.39 L/h/kg | –
N#Cc1ccc(COc2cccc(-c3cc(F)c(Cc4nc5ccc(C(=O)O)cc5n4[C@@H]4COC[C@@H]4O)cc3F)n2)c(F)c1 [Example 614] | 0.79 nM | 0.11 L/h/kg | –
CO[C@@H](CO)Cn1c(Cc2cc(F)c(-c3cccc(OCc4ccc(C#N)cc4F)n3)cc2F)nc2ccc(C(=O)O)cc21 [Example 619] | 3.1 nM | 0.40 L/h/kg | –
COC[C@H](Cn1c(Cc2cc(F)c(-c3cccc(OCc4ccc(C#N)cc4F)n3)cc2F)nc2ccc(C(=O)O)cc21)OC [Example 620] | – | 0.40 L/h/kg | 7.5 nM
COC[C@@H](Cn1c(Cc2cc(F)c(-c3cccc(OCc4ccc(C#N)cc4F)n3)cc2F)nc2ccc(C(=O)O)cc21)OC [Example 621] | – | 0.64 L/h/kg | 17.4 nM
N#Cc1ccc(COc2cccc(-c3cc(F)c(Cc4nc5ccc(C(=O)O)cc5n4CC45CC(CCO4)C5)cc3F)n2)c(F)c1 [Example 623] | 4.04 nM | 0.64 L/h/kg | –
N#Cc1ccc(COc2cccc(-c3cc(F)c(Cc4nc5ccc(C(=O)O)cc5n4CC45COC(C4)C5)cc3F)n2)c(F)c1 [Example 624] | 1.68 nM | 0.30 L/h/kg | –
N#Cc1ccc(COc2nccc(-c3ccc(Cc4nc5ccc(C(=O)O)cc5n4CC45CC(CO4)C5)cc3F)n2)c(F)c1 [Example 626] | 23.9 nM | 0.47 L/h/kg | –
N#Cc1ccc(COc2cccc(-c3cc(F)c(Cc4nc5ccc(C(=O)O)cc5n4CCOC4CCC4)cc3F)n2)c(F)c1 [Example 628] | 13.4 nM | 0.19 L/h/kg | –
N#Cc1ccc(COc2cccc(-c3cc(F)c(Cc4nc5ccc(C(=O)O)cc5n4CCOC4CC4)cc3F)n2)c(F)c1 [Example 629] | 1.26 nM | 0.11 L/h/kg | –
N#Cc1ccc(COc2cccc(-c3cc(F)c(Cc4nc5ccc(C(=O)O)cc5n4[C@H]4CCNC4=O)cc3F)n2)c(F)c1 [Example 630] | 39.4 nM | 0.16 L/h/kg | –
N#Cc1ccc(COc2cccc(-c3cc(F)c(Cc4nc5ccc(C(=O)O)cc5n4[C@@H]4CCNC4=O)cc3F)n2)c(F)c1 [Example 631] | 74.9 nM | 0.18 L/h/kg | –

More lines, in order of falling EC50 (GLP-1R; [2]), values ahead:

EC50 (GLP-1R; [2]) | Predicted Hepatic Clearance (Pred. Cl.) [1] | Compound | EC50 (GLP-1R; EC50 (nM))
1420 nM | 0.14 L/h/kg | Cc1nc(Cn2c(Cc3cc(F)c(-c4cccc(OCc5ccc(C#N)cc5F)n4)cc3F)nc3ccc(C(=O)O)cc32)oc1C [Example 615] | –
178 nM | 0.11 L/h/kg | Cc1cc(Cn2c(Cc3ccc(-c4cccc(OCc5ccc(C#N)cc5F)n4)cc3F)nc3ccc(C(=O)O)cc32)no1 [Example 606] | –
31.7 nM | 0.23 L/h/kg | N#Cc1ccc(COc2cccc(-c3ccc(Cc4nc5ccc(C(=O)O)cc5n4Cc4ncco4)nc3)n2)c(F)c1 [Example 601, 2-((6-((4-cyano-2-fluorobenzyl)oxy)-[2,3′-bipyridin]-6′-yl)methyl)-1-(oxazol-2-ylmethyl)-1H-benzo[d]imidazole-6-carboxylic acid] | –
26.9 nM | 0.50 L/h/kg | Cc1cnc(Cn2c(Cc3cc(F)c(-c4cccc(OCc5ccc(C#N)cc5F)n4)cc3F)nc3ccc(C(=O)O)cc32)o1 [Example 616] | –
2.68 nM | 0.38 L/h/kg | N#Cc1ccc(COc2nccc(-c3ccc(Cc4nc5ccc(C(=O)O)cc5n4Cc4ncco4)cc3F)n2)c(F)c1 [Example 622] | –
2.19 nM | 0.47 L/h/kg | COC1(Cn2c(Cc3cc(F)c(-c4cccc(OCc5ccc(C#N)cc5F)n4)cc3F)nc3ccc(C(=O)O)cc32)CCOC1 (centres unmarked) [Example 627] | –
1.57 nM | 0.3 L/h/kg | N#Cc1ccc(COc2cccc(-c3cc(F)c(Cc4nc5ccc(C(=O)O)cc5n4Cc4ncco4)cc3F)n2)c(F)c1 [Example 605, 2-(4-(6-((4-cyano-2-fluorobenzyl)oxy)pyridin-2-yl)-2,5-difluorobenzyl)-1-(oxazol-2-ylmethyl)-1H-benzo[d]imidazole-6-carboxylic acid] | –
1.17 nM | 0.17 L/h/kg | COCCn1c(Cc2cc(F)c(-c3cccc(OCc4ccc(Cl)cc4)n3)cc2F)nc2ccc(C(=O)O)cc21 [Example 602, 2-(4-(6-((4-chlorobenzyl)oxy)pyridin-2-yl)-2,5-difluorobenzyl)-1-(2-methoxyethyl)-1H-benzo[d]imidazole-6-carboxylic acid] | –
0.92 nM | 0.27 L/h/kg | COCCn1c(Cc2cc(F)c(-c3cccc(OCc4ccc(C#N)cc4)n3)cc2F)nc2ccc(C(=O)O)cc21 [Example 604, 2-(4-(6-((4-cyanobenzyl)oxy)pyridin-2-yl)-2,5-difluorobenzyl)-1-(2-methoxyethyl)-1H-benzo[d]imidazole-6-carboxylic acid] | –
0.63 nM | 0.16 L/h/kg | N#Cc1ccc(COc2cccc(-c3ccc(Cc4nc5c(F)cc(C(=O)O)cc5n4Cc4ncco4)c(F)c3)n2)c(F)c1 [Example 625] | –
0.55 nM | 0.22 L/h/kg | N#Cc1ccc(COc2nccc(-c3cc(F)c(Cc4nc5c(F)cc(C(=O)O)cc5n4Cc4ncco4)cc3F)n2)c(F)c1 [Example 617] | –
0.29 nM | 0.29 L/h/kg | N#Cc1ccc(COc2cccc(-c3cc(F)c(Cc4nc5ccc(C(=O)O)cc5n4[C@H]4COC[C@H]4F)cc3F)n2)c(F)c1 [Example 611] | –
0.24 nM | 0.11 L/h/kg | N#Cc1ccc(COc2cccc(-c3cc(F)c(Cc4nc5ccc(C(=O)O)c(F)c5n4C[C@@H]4CCO4)cc3F)n2)c(F)c1 [Example 632] | –
0.17 nM | 0.29 L/h/kg | N#Cc1ccc(COc2cccc(-c3ccc(Cc4nc5c(F)cc(C(=O)O)cc5n4C[C@@H]4CCO4)cc3)n2)c(F)c1 [Example 633] | –
